For test [1], the target named is D(1A) dopamine receptor (Bos taurus, UniProt Q95136).
In test [2] the target is D(2) dopamine receptor (Bos taurus, UniProt P20288).

Each structure is given as a SMILES string. “And” between values parts separate entries of the source, which are not always exact repeats. Equal values may be shown once. Where a name gives a salt, the structure may show the parent alone.

Chain of D(2) dopamine receptor (P20288 whole entry): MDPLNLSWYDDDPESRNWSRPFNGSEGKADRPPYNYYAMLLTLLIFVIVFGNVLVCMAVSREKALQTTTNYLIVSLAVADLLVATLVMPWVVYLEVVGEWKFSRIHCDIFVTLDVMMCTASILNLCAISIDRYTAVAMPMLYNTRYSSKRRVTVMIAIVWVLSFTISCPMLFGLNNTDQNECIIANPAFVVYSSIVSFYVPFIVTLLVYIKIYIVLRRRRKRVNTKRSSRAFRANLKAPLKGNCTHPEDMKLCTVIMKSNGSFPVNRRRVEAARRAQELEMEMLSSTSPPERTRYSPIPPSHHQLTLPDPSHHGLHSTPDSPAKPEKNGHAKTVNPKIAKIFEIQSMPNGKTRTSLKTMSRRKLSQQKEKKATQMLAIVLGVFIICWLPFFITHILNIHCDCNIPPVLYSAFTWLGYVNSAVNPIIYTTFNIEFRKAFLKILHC
Chain of D(1A) dopamine receptor (Q95136 whole entry): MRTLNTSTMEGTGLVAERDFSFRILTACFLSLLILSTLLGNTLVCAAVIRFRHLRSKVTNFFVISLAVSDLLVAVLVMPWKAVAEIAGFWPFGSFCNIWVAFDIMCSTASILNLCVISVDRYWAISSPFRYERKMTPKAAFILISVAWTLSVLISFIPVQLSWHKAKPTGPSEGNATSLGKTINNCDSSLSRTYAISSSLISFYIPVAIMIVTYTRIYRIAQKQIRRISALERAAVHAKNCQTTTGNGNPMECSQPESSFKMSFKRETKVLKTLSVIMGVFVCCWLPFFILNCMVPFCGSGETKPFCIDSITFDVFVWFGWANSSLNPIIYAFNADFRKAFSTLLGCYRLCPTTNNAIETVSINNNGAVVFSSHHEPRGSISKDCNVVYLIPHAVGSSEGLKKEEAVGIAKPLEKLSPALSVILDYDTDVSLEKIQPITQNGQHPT

As for `O=C1NCN(c2ccccc2)C12CCN(CCCC(c1ccc(F)cc1)c1ccc(F)cc1)CC2`, the Ki in test [1] turned out to be 1400 nM; in test [2] it was 0.6 nM.

Regarding `CN(C)CCCN1c2ccccc2CCc2ccccc21`, the Ki in test [1] was above 10000 nM; in test [2] it was 180 nM. As for `CC(COc1ccccc1)N(CCCl)Cc1ccccc1` (stereo not given), the Ki in test [1] was above 10000 nM; in test [2], 140 nM. In the same order, the values of `CC[C@@H](CO)NC(=O)[C@@H]1C=C2c3cccc4c3c(cn4C)C[C@H]2N(C)C1` are 290 nM and 160 nM.

As for `CN(C)CC/C=C1\c2ccccc2Sc2ccc(Cl)cc21`, the inhibitory constant (Ki) in test [1] was 250 nM; in test [2], 4.4 nM. In the case of `NCCc1ccc(O)c(O)c1`, the inhibition constant Ki in test [1] was 17.5 nM and 16.8 nM and 11.7 nM. Turning to `CN(C)CCCN1c2ccccc2Sc2ccccc21`, the values for the inhibition constant (Ki) in test [1] and in test [2] were 7100 nM and 72 nM, respectively.

Regarding `CN1CCN(CCCN2c3ccccc3Sc3ccc(C(F)(F)F)cc32)CC1`, the Ki in test [1] was determined as 740 nM; in test [2] it was 2.1 nM. On to `NC1CCc2cc(O)c(O)cc2C1` (stereo not given), for which the Ki in test [1] came out at 11 nM; in test [2], 120 nM. In the same order, the values of `CN1C2CCC1CC(OC(c1ccccc1)c1ccccc1)C2` (stereo not given) are above 10000 nM and 230 nM.

For the molecule `O=c1[nH]c2ccccc2n1C1CCN(CCCC(c2ccc(F)cc2)c2ccc(F)cc2)CC1` [1-(1-(4,4-bis(4-fluorophenyl)butyl)piperidin-4-yl)-1H-benzo[d]imidazol-2(3H)-one], the inhibition constant Ki is 5300 nM and 7600 nM and 6800 nM in test [1]; 0.81 nM and 0.6 nM in test [2].

Take `O=C(CCCN1CC=C(n2c(=O)[nH]c3ccccc32)CC1)c1ccc(F)cc1` [1-(1-(4-(4-fluorophenyl)-4-oxobutyl)-1,2,3,6-tetrahydropyridin-4-yl)-1H-benzo[d]imidazol-2(3H)-one]: the inhibition constant (Ki) came to 880 nM in test [1] and 1 nM in test [2]. Take `O=C(CCCN1CCN(c2ccccn2)CC1)c1ccc(F)cc1` [1-(4-Fluoro-phenyl)-4-(4-pyridin-2-yl-piperazin-1-yl)-butan-1-one(Azaperone)]: the Ki amounted to 1700 nM in test [1] and 10 nM in test [2]. Turning to `OCCN1CCN(CCCN2c3ccccc3Sc3ccc(C(F)(F)F)cc32)CC1` [2-[4-[3-[2-(trifluoromethyl)phenothiazin-10-yl]propyl]piperazin-1-yl]ethanol;hydrochloride], the Ki in test [2] is 0.88 nM and 0.6 nM and 0.3 nM and 0.8 nM. Take `OCCN1CCN(CC/C=C2/c3ccccc3Sc3ccc(Cl)cc32)CC1` [2-[4-[(3Z)-3-(2-chloro-9-thioxanthenylidene)propyl]-1-piperazinyl]ethanol;hydrochloride]: the Ki in test [1] worked out at 480 nM; in test [2], 3.1 nM. For `O=C(CCCN1CCC(O)(c2ccc(Cl)cc2)CC1)c1ccc(F)cc1` [4-[4-(4-Chloro-phenyl)-4-hydroxy-piperidin-1-yl]-1-(4-fluoro-phenyl)-butan-1-one;propionate(HCl)], the inhibition constant (Ki) in test [1] is 920 nM and 1060 nM and 1100 nM. As for `CN1CCC(=C2c3ccccc3C=Cc3ccccc32)CC1` [5-(1-methylpiperidylidene-4)-5H-dibenzo(a,d)cyclopheptene], the inhibition constant Ki in test [1] amounted to 1200 nM; in test [2], 65 nM. For `CSc1ccc2c(c1)N(CC[C@@H]1CCCCN1C)c1ccccc1S2` [10-[2-(1-Methyl-piperidin-2-yl)-ethyl]-2-methylsulfanyl-10H-phenothiazine (thioridazine)], in test [1], the inhibition constant Ki is 1800 nM and 1780 nM and 1810 nM. As to `CN1C[C@H](C(=O)N[C@]2(C)O[C@@]3(O)[C@@H]4CCCN4C(=O)[C@H](Cc4ccccc4)N3C2=O)C=C2c3cccc4[nH]cc(c34)C[C@H]21` [12'-hydroxy-2'-methyl-5'alpha-(phenylmethyl)ergotaman-3',6',18-trione], the inhibitory constant (Ki) in test [1] came to 30 nM; in test [2], 1.8 nM. Taken in the same sequence, the figures for `COc1ccc2c(c1O)-c1c3c(cc4c1[C@H](C2)N(C)CC4)OCO3` [(S)-11-methoxy-7-methyl-6,7,7a,8-tetrahydro-5H-benzo[g][1,3]dioxolo[4',5':4,5]benzo[1,2,3-de]quinolin-12-ol] were 800 nM and 930 nM.

As to `CC(C)C[C@H]1C(=O)N2CCCC2[C@]2(O)O[C@](NC(=O)[C@@H]3C=C4c5cccc6[nH]cc(c56)CC4N(C)C3)(C(C)C)C(=O)N12` (stereo partly drawn) [ALPHA-ERGOCRYPTINE], the Ki is 69 nM in test [1] and 1.3 nM in test [2]. In the same order, the values of `O=C(CCCN1CCC(O)(c2ccc(Br)cc2)CC1)c1ccc(F)cc1` [BROMPERIDOL] are 600 nM and 1.4 nM. For the molecule `CC(C)C[C@H]1C(=O)N2CCC[C@H]2[C@]2(O)O[C@](NC(=O)[C@@H]3C=C4c5cccc6[nH]c(Br)c(c56)C[C@H]4N(C)C3)(C(C)C)C(=O)N12` [Bromocriptine+ (GTP+)], the inhibition constant (Ki) in test [2] was 2.5 nM. With `CC(C)NC(=O)C1C=C2c3cccc4[nH]cc(c34)CC2N(C)C1` (stereo not given) [CAS_60-79-7], in test [1], the inhibition constant Ki turned out to be 61 nM. `CNCCc1ccc(O)c(O)c1` [CAS_62-32-8]: the inhibition constant Ki worked out at 23 nM in test [1] and 530 nM in test [2]. Consider `O=C(CCC(F)N1CCC(O)(c2cccc(C(F)(F)F)c2)CC1)c1ccccc1` (stereo not given) [CAS_749-13-3], for which the Ki in test [1] worked out at 740 nM; in test [2] it was 0.95 nM.

Turning to `NC(=O)C1(N2CCCCC2)CCN(CCCC(=O)c2ccc(F)cc2)CC1` [CAS_1893-33-0], the Ki in test [1] was 4900 nM; in test [2] it was 31 nM. In the same order, the values of `O=C(CCCN1CCC(n2c(O)nc3ccccc32)CC1)c1ccc(F)cc1` [CAS_2062-84-2] are 4100 nM and 0.33 nM. As to `CCC(=O)C(CC(C)N(C)C)(c1ccccc1)c1ccccc1` (stereo not given) [CAS_5967-73-7], the results for the Ki in test [1] and in test [2] were above 10000 nM and 2700 nM, respectively. Take `O=C(CCCN1CCC(O)(c2ccc(Cl)c(C(F)(F)F)c2)CC1)c1ccc(F)cc1` [CAS_10457-91-7]: the Ki in test [1] was 360 nM; in test [2], 0.5 nM. Taken in the same sequence, the figures for `OCCC1CCN(CCC=C2c3ccc(F)cc3Sc3ccc(C(F)(F)F)cc32)CC1` [CAS_60197-32-2] were 67 nM and 0.9 nM. As for `CNCC(O)c1ccc(O)c(O)c1` (stereo not given) [EPINEPHRINE], the inhibitory constant (Ki) in test [1] is 280 nM and 1200 nM; in test [2], 2600 nM and > 10000 nM. Take `CC(C)[C@H]1C(=O)N2CCC[C@H]2[C@]2(O)O[C@](NC(=O)[C@@H]3C=C4c5cccc6[nH]cc(c56)C[C@H]4N(C)C3)(C(C)C)C(=O)N12` [ERGOCORNINE]: the figures for the inhibitory constant (Ki) in test [1] and in test [2] were 36 nM and 0.7 nM, respectively.

For `COc1ccccc1N1CCN(CCCC(=O)c2ccc(F)cc2)CC1` [Fluanisone], the Ki in test [1] worked out at 800 nM; in test [2], 3.8 nM. Taken in the same sequence, the figures for `CCN(CC)C(=O)[C@@H]1C=C2c3cccc4[nH]c(Br)c(c34)C[C@H]2N(C)C1` [LSD,2-Bromo] were 54 nM and 4 nM. In the case of `CN1CCN2c3ccccc3Cc3ccccc3[C@H]2C1` [MIANSERIN (+)], the values for the inhibition constant Ki in test [1] and in test [2] were 2500 nM and 620 nM, respectively. As for `CCc1c(C)[nH]c2c1C(=O)C(CN1CCOCC1)CC2` (stereo not given) [Moban], the Ki was above 10000 nM in test [1]; 68 nM and 65 nM and 85 nM and 90 nM in test [2].

As for `CC(CN1c2ccccc2Sc2ccccc21)N(C)C` (stereo not drawn) [N,N,alpha-trimethyl-10H-phenothiazine-10-ethanamine], the Ki in test [1] is above 10000 nM; in test [2] it was 240 nM. For `Cc1ccc(C2(O)CCN(CCCC(=O)c3ccc(F)cc3)CC2)cc1` [NSC_4249], the inhibitory constant (Ki) in test [1] was 1200 nM; in test [2], 1.9 nM.

Turning to `OCCN1CCN(CCC=C2c3ccccc3Sc3ccc(Cl)cc32)CC1` [NSC_12454], the inhibition constant (Ki) in test [1] is above 10000 nM; in test [2] it was 88 nM. In the same order, the values of `OCCN1CCN(CCCC2c3ccc(F)cc3Sc3ccc(C(F)(F)F)cc32)CC1` (stereo not given) [NSC_68751] are 1900 nM and 2.6 nM. As to `NCC(O)c1ccc(O)c(O)c1` (stereo not drawn) [Noradrenaline,(+)], the inhibition constant Ki was 820 nM and 200 nM in test [1]; > 10000 nM and 5600 nM in test [2]. Turning to `OC1(c2ccc(Cl)c(C(F)(F)F)c2)CCN(CCCC(c2ccc(F)cc2)c2ccc(F)cc2)CC1` [Penfluridol], the results for the inhibition constant (Ki) in test [1] and in test [2] were 1600 nM and 5.6 nM, respectively. In the same order, the values of `CC(C)[C@@]1(NC(=O)[C@@H]2C=C3c4cccc5[nH]cc(c45)C[C@H]3N(C)C2)O[C@@]2(O)[C@@H]3CCCN3C(=O)[C@H](Cc3ccccc3)N2C1=O` [SMR000058447] are 52 nM and 1.4 nM. In the same order, the values of `Cc1ccc(N(CC2=NCCN2)c2cccc(O)c2)cc1` [SMR000059054] are above 10000 nM and 2000 nM. Consider `CN(C)CCCN1c2ccccc2Sc2ccc(C(F)(F)F)cc21` [TRIFLUPROMAZINE], for which the Ki in test [1] came out at 530 nM; in test [2] it was 2.1 nM. Taken in the same sequence, the figures for `CC(C)=CCN1CC[C@@]2(C)c3cc(O)ccc3C[C@@H]1[C@@H]2C` [Talwin] were above 10000 nM and 3500 nM.

Take `CSc1ccc2c(c1)C(N1CCN(C)CC1)Cc1ccccc1S2` (stereo not given) [methanesulfonic acid;1-methyl-4-(3-methylsulfanyl-5,6-dihydrobenzo[b][1]benzothiepin-5-yl)piperazine]: the values for the Ki in test [1] and in test [2] were 210 nM and 1.4 nM, respectively.

By Ki is commonly meant the equilibrium dissociation constant of an inhibitor or competing ligand from its target. Lower therefore signals higher affinity.

The record behind these values is BindingDB's records for PubMed 995128 (1976).
